In patent US11203601B2, “Tricyclic compounds as glycogen synthase kinase 3 (GSK3) inhibitors and uses thereof” (The Broad Institute, Inc., priority 2017, dated 2021):
pIC50: −log10 of the molar value.

Assays:
MOS_Cascade = MOS_Cascade (Homo sapiens (Human), UniProt P00540); test: Carna kinome panel; assay type: biochemical; conditions: read-out: % Inhibition at 10 μM of the test compound
TAK1-TAB1_Cascade = TAK1-TAB1_Cascade (Homo sapiens (Human), UniProt O43318); test: Carna kinome panel; assay type: biochemical; conditions: read-out: % Inhibition at 10 μM of the test compound
KIT = KIT (Homo sapiens (Human), UniProt P10721); test: Carna kinome panel; assay type: biochemical; conditions: read-out: % Inhibition at 10 μM of the test compound
QIK = QIK (Homo sapiens (Human), UniProt Q9H0K1); test: Carna kinome panel; assay type: biochemical; conditions: read-out: % Inhibition at 10 μM of the test compound
CSK = CSK (Homo sapiens (Human), UniProt P41240); test: Carna kinome panel; assay type: biochemical; conditions: read-out: % Inhibition at 10 μM of the test compound
MRCKα = MRCKα (Homo sapiens (Human), UniProt Q5VT25); test: Carna kinome panel; assay type: biochemical; conditions: read-out: % Inhibition at 10 μM of the test compound
CK1ε = CK1ε (Homo sapiens (Human), UniProt P49674); test: Carna kinome panel; assay type: biochemical; conditions: read-out: % Inhibition at 10 μM of the test compound
LTK = LTK (Homo sapiens (Human), UniProt P29376); test: Carna kinome panel; assay type: biochemical; conditions: read-out: % Inhibition at 10 μM of the test compound
Procedure: (§1) Briefly, a selection of compounds was screened against a panel of kinases at a single concentration of 10 μM. […] This was completed using one of two assays, depending on the kinase being examined: 1) IMAP Assay. A solution of 4× inhibitor, 4× substrate/ATP/metal solution and 2× kinase solution was prepared with assay buffer (20 mM HEPES, 0.01% Tween-20, 2 mM DTT, pH 7.4) and mixed, then incubated in 384-well black plates for 1 hour at room temperature. The IMAP binding reagent (IMAP Screening Express kit; Molecular Devices) was added to each well and incubated for 30 minutes. […] 2) Off-Chip Mobility Shift Assay (MSA). A solution of 4× inhibitor, 4× substrate/ATP/metal solution and 2× kinase solution was prepared with assay buffer (20 mM HEPES, 0.01% Triton X-100, 2 mM DTT, pH 7.5) and mixed, then incubated in 384-well plates for 1 or 5 hours depending on the kinase, at room temperature. Termination buffer (QuickScout Screening assist MSA; Carna Biosciences) was added to each well. The entire reaction mixture was then applied to a LabChip3000 system (Caliper Life Science), and the product and substrate peptide peaks were separated and quantified. […] The entire reaction mixture was then applied to a LabChip3000 system (Caliper Life Science), and the product and substrate peptide peaks were separated and quantified.

PDGFRα(V561D) = PDGFRα(V561D) (Homo sapiens (Human), UniProt P16234, V561D); test: Carna kinome panel; assay type: biochemical; conditions: read-out: % Inhibition at 10 μM of the test compound
PKD3 = PKD3 (Homo sapiens (Human), UniProt O94806); test: Carna kinome panel; assay type: biochemical; conditions: read-out: % Inhibition at 10 μM of the test compound
CRIK = CRIK (Homo sapiens (Human), UniProt O14578); test: Carna kinome panel; assay type: biochemical; conditions: read-out: % Inhibition at 10 μM of the test compound
p38α = p38α (Homo sapiens (Human), UniProt Q16539); test: Carna kinome panel; assay type: biochemical; conditions: read-out: % Inhibition at 10 μM of the test compound
LYNb = LYNb (Homo sapiens (Human), UniProt P07948); test: Carna kinome panel; assay type: biochemical; conditions: read-out: % Inhibition at 10 μM of the test compound
AKT1 = AKT1 (Homo sapiens (Human), UniProt P31749); test: Carna kinome panel; assay type: biochemical; conditions: read-out: % Inhibition at 10 μM of the test compound
AurA = AurA (Homo sapiens (Human), UniProt O14965); test: Carna kinome panel; assay type: biochemical; conditions: read-out: % Inhibition at 10 μM of the test compound
BRK = BRK (Homo sapiens (Human), UniProt Q13882); test: Carna kinome panel; assay type: biochemical; conditions: read-out: % Inhibition at 10 μM of the test compound
NDR1 = NDR1 (Homo sapiens (Human), UniProt Q15208); test: Carna kinome panel; assay type: biochemical; conditions: read-out: % Inhibition at 10 μM of the test compound
MAP3K1_Cascade = test: Carna kinome panel; assay type: biochemical
Procedure: as §1

TXK = TXK (Homo sapiens (Human), UniProt P42681); test: Carna kinome panel; assay type: biochemical; conditions: read-out: % Inhibition at 10 μM of the test compound
IKKα = IKKα (Homo sapiens (Human), UniProt O15111); test: Carna kinome panel; assay type: biochemical; conditions: read-out: % Inhibition at 10 μM of the test compound
CaMK2α = CaMK2α (Homo sapiens (Human), UniProt Q9UQM7); test: Carna kinome panel; assay type: biochemical; conditions: read-out: % Inhibition at 10 μM of the test compound
HIPK3 = HIPK3 (Homo sapiens (Human), UniProt Q9H422); test: Carna kinome panel; assay type: biochemical; conditions: read-out: % Inhibition at 10 μM of the test compound
ALK(L1152insT) = test: Carna kinome panel; assay type: biochemical
Procedure: as §1

NEK4 = NEK4 (Homo sapiens (Human), UniProt P51957); test: Carna kinome panel; assay type: biochemical; conditions: read-out: % Inhibition at 10 μM of the test compound
ABL = ABL (Homo sapiens (Human), UniProt P00519); test: Carna kinome panel; assay type: biochemical; conditions: read-out: % Inhibition at 10 μM of the test compound
HCK = HCK (Homo sapiens (Human), UniProt P08631); test: Carna kinome panel; assay type: biochemical; conditions: read-out: % Inhibition at 10 μM of the test compound
ALK = ALK (Homo sapiens (Human), UniProt Q9UM73); test: Carna kinome panel; assay type: biochemical; conditions: read-out: % Inhibition at 10 μM of the test compound
ROCK2 = ROCK2 (Homo sapiens (Human), UniProt O75116); test: Carna kinome panel; assay type: biochemical; conditions: read-out: % Inhibition at 10 μM of the test compound
MARK3 = MARK3 (Homo sapiens (Human), UniProt P27448); test: Carna kinome panel; assay type: biochemical; conditions: read-out: % Inhibition at 10 μM of the test compound
CK2α1/β = CK2α1/β (Homo sapiens (Human), UniProt P68400); test: Carna kinome panel; assay type: biochemical; conditions: read-out: % Inhibition at 10 μM of the test compound
Procedure: as §1

NEK7 = NEK7 (Homo sapiens (Human), UniProt Q8TDX7); test: Carna kinome panel; assay type: biochemical; conditions: read-out: % Inhibition at 10 μM of the test compound
FGFR3(K650M) = FGFR3(K650M) (Homo sapiens (Human), UniProt P22607, K650M); test: Carna kinome panel; assay type: biochemical; conditions: read-out: % Inhibition at 10 μM of the test compound
ALK(G1202R) = ALK(G1202R) (Homo sapiens (Human), UniProt Q9UM73, G1202R); test: Carna kinome panel; assay type: biochemical; conditions: read-out: % Inhibition at 10 μM of the test compound
TSSK3 = TSSK3 (Homo sapiens (Human), UniProt Q96PN8); test: Carna kinome panel; assay type: biochemical; conditions: read-out: % Inhibition at 10 μM of the test compound
EGFR(d746-750/T790M) = EGFR(d746-750/T790M) (Homo sapiens (Human), UniProt P00533, DEL746-750/T790M); test: Carna kinome panel; assay type: biochemical; conditions: read-out: % Inhibition at 10 μM of the test compound
EGFR(L861Q) = EGFR(L861Q) (Homo sapiens (Human), UniProt P00533, L861Q); test: Carna kinome panel; assay type: biochemical; conditions: read-out: % Inhibition at 10 μM of the test compound
SRM = SRM (Homo sapiens (Human), UniProt Q9H3Y6); test: Carna kinome panel; assay type: biochemical; conditions: read-out: % Inhibition at 10 μM of the test compound
MARK4 = MARK4 (Homo sapiens (Human), UniProt Q96L34); test: Carna kinome panel; assay type: biochemical; conditions: read-out: % Inhibition at 10 μM of the test compound
TYK2 = TYK2 (Homo sapiens (Human), UniProt P29597); test: Carna kinome panel; assay type: biochemical; conditions: read-out: % Inhibition at 10 μM of the test compound
GSK3α = GSK3α (Homo sapiens (Human), UniProt P49840); test: biochemical
Sequence of GSK3α (P49840 whole entry): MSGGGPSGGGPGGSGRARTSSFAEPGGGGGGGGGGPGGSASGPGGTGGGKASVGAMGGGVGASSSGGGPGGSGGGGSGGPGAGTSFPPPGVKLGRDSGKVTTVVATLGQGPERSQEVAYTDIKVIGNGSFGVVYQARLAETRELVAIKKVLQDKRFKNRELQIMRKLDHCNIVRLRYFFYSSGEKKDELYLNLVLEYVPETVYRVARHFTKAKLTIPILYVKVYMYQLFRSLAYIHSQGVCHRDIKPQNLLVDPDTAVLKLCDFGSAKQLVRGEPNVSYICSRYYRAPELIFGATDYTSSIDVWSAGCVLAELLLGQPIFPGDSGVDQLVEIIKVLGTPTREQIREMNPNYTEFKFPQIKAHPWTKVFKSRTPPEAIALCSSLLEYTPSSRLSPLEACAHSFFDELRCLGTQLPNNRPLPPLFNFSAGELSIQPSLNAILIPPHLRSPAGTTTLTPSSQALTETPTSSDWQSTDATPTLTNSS
Procedure: A selection of compounds was screened against a selected panel of kinases based on single point inhibitory ability to determine absolute inhibitory activity, leading to selectivity measurements. The assay utilized was identical to that of the single point inhibitory activity determination (MSA) but run in dose response. A solution of 4× inhibitor (5 μL), 4× substrate/ATP Metal solution (5 μL), and 2× Kinase solution (10 μL) was prepared with assay buffer (20 mM HEPES, 0.01% Triton X-100, 2 mM DTT, pH 7.5) and mixed/incubated in 384 well plates for 1 or 5 hours depending on the kinase, at room temperature. A solution of termination buffer (QuickScout Screening assist MSA; Carna Biosciences) (60 μL) was added to each well. The entire reaction mixture was then applied to a LabChip3000 system (Caliper Life Science) and the product and substrate peptide peaks were separated and quantified.
Briefly, a selection of compounds was screened against a panel of kinases at a single concentration of 10 μM. […] The entire reaction mixture was then applied to a LabChip3000 system (Caliper Life Science), and the product and substrate peptide peaks were separated and quantified. […] The entire reaction mixture was then applied to a LabChip3000 system (Caliper Life Science), and the product and substrate peptide peaks were separated and quantified.

Sequence of SRM (Q9H3Y6 whole entry): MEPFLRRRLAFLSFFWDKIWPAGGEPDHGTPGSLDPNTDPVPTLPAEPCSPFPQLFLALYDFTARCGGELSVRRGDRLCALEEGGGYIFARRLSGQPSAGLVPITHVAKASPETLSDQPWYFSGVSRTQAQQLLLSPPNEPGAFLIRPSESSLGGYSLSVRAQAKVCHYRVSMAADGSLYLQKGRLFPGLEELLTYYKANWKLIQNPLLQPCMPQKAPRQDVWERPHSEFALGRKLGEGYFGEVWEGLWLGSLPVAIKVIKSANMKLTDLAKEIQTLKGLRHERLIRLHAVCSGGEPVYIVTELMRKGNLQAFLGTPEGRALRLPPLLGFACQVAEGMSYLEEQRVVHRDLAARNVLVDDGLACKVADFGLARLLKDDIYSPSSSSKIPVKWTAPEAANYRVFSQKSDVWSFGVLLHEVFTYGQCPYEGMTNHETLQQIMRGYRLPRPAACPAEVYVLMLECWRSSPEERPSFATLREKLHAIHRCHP
Sequence of MOS_Cascade (P00540 whole entry): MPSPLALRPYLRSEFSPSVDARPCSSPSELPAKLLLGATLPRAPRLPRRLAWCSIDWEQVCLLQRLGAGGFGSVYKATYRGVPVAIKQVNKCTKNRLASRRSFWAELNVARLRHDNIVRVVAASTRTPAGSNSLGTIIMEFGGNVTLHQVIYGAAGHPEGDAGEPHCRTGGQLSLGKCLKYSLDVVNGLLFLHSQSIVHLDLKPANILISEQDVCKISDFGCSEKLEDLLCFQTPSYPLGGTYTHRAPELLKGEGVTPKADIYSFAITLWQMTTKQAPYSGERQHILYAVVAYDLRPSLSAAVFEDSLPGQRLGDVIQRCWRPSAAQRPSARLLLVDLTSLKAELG
Sequence of TXK (P42681 whole entry): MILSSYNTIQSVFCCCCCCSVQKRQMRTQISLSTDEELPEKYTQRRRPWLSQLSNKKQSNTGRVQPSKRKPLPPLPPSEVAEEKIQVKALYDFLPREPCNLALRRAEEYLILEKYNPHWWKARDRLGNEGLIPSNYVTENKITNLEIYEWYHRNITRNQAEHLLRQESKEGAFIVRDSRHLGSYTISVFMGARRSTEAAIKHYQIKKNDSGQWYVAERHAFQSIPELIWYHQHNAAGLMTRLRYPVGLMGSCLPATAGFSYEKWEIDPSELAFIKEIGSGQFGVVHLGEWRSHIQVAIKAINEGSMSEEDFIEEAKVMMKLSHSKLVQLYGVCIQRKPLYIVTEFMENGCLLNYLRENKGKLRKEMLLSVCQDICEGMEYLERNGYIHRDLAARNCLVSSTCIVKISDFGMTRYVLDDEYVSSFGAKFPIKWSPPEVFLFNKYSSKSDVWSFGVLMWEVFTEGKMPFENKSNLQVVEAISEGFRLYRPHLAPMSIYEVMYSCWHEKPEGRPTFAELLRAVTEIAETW
Sequence of NDR1 (Q15208 whole entry): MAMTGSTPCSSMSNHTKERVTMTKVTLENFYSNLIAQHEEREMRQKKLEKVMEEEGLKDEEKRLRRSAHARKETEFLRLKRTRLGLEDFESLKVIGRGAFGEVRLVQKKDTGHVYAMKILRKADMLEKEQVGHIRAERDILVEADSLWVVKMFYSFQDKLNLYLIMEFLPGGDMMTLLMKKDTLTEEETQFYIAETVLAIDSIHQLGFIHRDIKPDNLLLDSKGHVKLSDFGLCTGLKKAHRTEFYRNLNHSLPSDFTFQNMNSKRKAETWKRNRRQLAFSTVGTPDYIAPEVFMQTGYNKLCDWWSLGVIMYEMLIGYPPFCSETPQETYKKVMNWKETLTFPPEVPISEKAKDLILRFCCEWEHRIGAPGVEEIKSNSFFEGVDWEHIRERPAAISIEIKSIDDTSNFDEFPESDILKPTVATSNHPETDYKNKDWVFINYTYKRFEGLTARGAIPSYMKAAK
Sequence of TYK2 (P29597 whole entry): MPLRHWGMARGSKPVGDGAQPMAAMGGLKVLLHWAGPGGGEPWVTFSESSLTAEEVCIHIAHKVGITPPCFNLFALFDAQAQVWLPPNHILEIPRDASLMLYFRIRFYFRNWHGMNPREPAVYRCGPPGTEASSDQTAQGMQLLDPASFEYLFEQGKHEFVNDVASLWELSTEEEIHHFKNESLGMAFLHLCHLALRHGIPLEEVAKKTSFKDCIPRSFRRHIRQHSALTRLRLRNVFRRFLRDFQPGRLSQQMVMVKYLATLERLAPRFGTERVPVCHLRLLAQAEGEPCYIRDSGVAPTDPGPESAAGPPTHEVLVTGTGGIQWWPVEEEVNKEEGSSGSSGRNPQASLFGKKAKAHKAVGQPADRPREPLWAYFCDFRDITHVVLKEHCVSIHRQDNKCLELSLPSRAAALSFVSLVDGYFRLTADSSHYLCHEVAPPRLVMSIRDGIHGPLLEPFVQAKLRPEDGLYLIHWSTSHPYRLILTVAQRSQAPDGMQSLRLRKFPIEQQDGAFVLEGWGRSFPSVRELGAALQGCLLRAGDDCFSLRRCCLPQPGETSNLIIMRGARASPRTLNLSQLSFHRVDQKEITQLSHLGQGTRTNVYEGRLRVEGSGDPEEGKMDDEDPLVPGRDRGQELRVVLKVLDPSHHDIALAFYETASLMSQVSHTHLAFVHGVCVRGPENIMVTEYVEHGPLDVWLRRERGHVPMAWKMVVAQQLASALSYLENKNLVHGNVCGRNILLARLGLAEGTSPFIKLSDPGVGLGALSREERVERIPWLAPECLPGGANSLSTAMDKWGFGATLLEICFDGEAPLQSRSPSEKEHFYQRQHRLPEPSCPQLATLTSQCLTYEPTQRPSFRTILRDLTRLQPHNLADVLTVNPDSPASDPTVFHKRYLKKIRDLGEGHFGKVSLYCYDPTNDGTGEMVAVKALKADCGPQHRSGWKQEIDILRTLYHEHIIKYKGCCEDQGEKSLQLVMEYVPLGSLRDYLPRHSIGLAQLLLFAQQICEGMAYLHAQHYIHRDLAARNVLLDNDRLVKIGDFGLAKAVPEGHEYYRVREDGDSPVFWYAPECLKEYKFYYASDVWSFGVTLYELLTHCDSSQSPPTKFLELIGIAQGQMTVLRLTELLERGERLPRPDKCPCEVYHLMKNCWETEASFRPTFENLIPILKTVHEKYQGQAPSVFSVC
Sequence of LYNb (P07948 other isoform, or with tags, fused parts or gaps): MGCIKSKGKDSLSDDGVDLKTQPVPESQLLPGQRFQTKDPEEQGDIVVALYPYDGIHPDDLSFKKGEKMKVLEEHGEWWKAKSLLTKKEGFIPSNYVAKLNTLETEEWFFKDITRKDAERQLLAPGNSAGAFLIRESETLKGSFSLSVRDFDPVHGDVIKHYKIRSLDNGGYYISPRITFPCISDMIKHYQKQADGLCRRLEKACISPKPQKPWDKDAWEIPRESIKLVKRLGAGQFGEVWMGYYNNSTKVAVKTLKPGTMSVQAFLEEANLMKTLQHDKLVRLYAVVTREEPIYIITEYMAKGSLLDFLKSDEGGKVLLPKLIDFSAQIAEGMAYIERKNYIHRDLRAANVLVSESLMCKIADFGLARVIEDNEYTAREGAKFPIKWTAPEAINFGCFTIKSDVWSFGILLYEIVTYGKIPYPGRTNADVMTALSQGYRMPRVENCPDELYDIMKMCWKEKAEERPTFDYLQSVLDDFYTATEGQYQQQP
Sequence of LTK (P29376 17-864): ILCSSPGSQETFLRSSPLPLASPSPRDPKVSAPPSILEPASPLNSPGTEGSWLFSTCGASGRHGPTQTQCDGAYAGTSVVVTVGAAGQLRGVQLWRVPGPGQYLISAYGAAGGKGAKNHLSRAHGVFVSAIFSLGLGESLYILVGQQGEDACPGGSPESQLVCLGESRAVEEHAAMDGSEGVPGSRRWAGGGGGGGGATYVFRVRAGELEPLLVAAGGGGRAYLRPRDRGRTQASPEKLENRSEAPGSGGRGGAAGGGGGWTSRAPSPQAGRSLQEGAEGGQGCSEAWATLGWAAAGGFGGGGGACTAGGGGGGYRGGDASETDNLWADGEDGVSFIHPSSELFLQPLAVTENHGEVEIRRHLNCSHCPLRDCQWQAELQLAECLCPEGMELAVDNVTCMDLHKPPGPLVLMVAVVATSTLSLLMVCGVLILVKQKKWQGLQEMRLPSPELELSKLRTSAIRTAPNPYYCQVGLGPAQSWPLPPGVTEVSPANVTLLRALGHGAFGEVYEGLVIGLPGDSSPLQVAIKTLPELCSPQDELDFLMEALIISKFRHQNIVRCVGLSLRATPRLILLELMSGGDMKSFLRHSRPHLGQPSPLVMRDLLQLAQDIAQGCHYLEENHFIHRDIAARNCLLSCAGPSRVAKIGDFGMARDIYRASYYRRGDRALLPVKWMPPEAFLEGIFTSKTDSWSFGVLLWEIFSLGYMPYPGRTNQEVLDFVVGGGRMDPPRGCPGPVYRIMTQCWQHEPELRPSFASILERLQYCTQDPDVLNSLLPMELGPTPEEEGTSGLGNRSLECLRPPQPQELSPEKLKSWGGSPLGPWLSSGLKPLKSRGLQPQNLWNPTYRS

In the case of `CCC1(c2ccccc2)C2=C(CC(C)(C)CC2=O)Nc2ncsc21` (centres unmarked) [Compound 1, 9-Ethyl-6,6-dimethyl-9-phenyl-5,6,7,9-tetrahydrothiazolo[4,5-b]quinolin-8(4H)-one], the inhibition at 10 µM (MOS_Cascade) was 12.4%, the inhibition at 10 µM (TAK1-TAB1_Cascade) was 8% and the inhibition at 10 µM (KIT) was 7.1%. For the same compound, the inhibition at 10 µM (QIK) was 6.9%, the inhibition at 10 µM (CSK) was 6.1% and the inhibition at 10 µM (MRCKα) was 3.3%. For the same compound, the inhibition at 10 µM (CK1ε) was 3.1%, the inhibition at 10 µM (LTK) was 3.1% and the inhibition at 10 µM (PDGFRα(V561D)) was 2.8%. The inhibition at 10 µM (PKD3) was 2.7%, the inhibition at 10 µM (CRIK) was 1.6% and the inhibition at 10 µM (p38α) was 1.1%. The inhibition at 10 µM (LYNb) was 0.8%, the inhibition at 10 µM (AKT1) was 0.7% and the inhibition at 10 µM (AurA) was 0.4%. For the same compound, the inhibition at 10 µM (BRK) was 0.3%, the inhibition at 10 µM (NDR1) was 0.2% and the “% Inhibition at 10 μM of the test compound” value (MAP3K1_Cascade) was −1.0%. It also gave an inhibition at 10 µM (TXK) of -1.3%, an inhibition at 10 µM (IKKα) of -1.6% and an inhibition at 10 µM (CaMK2α) of -1.6%. The inhibition at 10 µM (HIPK3) was -1.9%, the “% Inhibition at 10 μM of the test compound” value (ALK(L1152insT)) was −2.3% and the inhibition at 10 µM (NEK4) was -2.5%. It also gave an inhibition at 10 µM (ABL) of -2.7%, an inhibition at 10 µM (HCK) of -3% and an inhibition at 10 µM (ALK) of -3.1%. The inhibition at 10 µM (ROCK2) was -3.1%, the inhibition at 10 µM (MARK3) was -3.3% and the inhibition at 10 µM (CK2α1/β) was -3.7%. For the same compound, the inhibition at 10 µM (NEK7) was -3.9%, the inhibition at 10 µM (FGFR3(K650M)) was -4% and the inhibition at 10 µM (ALK(G1202R)) was -5%. The inhibition at 10 µM (TSSK3) was -5.1%, the inhibition at 10 µM (EGFR(d746-750/T790M)) was -5.6% and the inhibition at 10 µM (EGFR(L861Q)) was -6.1%. The inhibition at 10 µM (SRM) was -15.1%, the inhibition at 10 µM (MARK4) was -15.7% and the inhibition at 10 µM (TYK2) was -18.9%. It also gave a pIC50 (GSK3α) of 7.50 and an inhibition at 10 µM (GSK3α; read-out: % Inhibition at 10 μM of the test compound) of 98%.
